{"source": "paper PMC12528448", "about": "“Resistance to CDK7 inhibitors directed by acquired mutation of a conserved residue in cancer cells” (The EMBO Journal, 2025)", "assay_type_in_all_cases": "cell-based, human", "key": {"22Rv1 cells": {"test_system": "22Rv1 cells", "assay": "Growth assay (SRB), 22Rv1", "description": "(§1) To determine the IC50 of drug treatments on growth, cells were seeded in 96-well culture plates. Two days after seeding, the cells were treated with increasing concentrations of drugs and incubated for 4 days. Cell number was determined using the SRB assay (Skehan et al, [1990]), and IC50 values were calculated using non-linear regression curve fitting in GraphPad Prism v10. For all other growth experiments, cells were seeded into 96-well plates, and appropriate drugs were added 2 days after seeding. Cells were then incubated in an IncuCyte Zoom live-cell imager, with cell confluency measured every 6 h. Cell doubling times were determined by non-linear curve fitting (exponential growth equation) in GraphPad Prism v10."}, "22Rv1-SamR cells": {"test_system": "22Rv1-SamR cells", "assay": "Growth assay (SRB), Samuraciclib-resistant 22Rv1", "details": "for % Growth: 22Rv1 SamR, 4 days, biological reps", "description": "as §1"}, "MCF7 cells": {"test_system": "MCF7 cells", "assay": "Growth assay (SRB), MCF7", "details": "for % Growth: biological reps", "description": "as §1"}, "MCF7-CDK7-D97N cells": {"test_system": "MCF7-CDK7-D97N cells", "assay": "Growth assay (SRB), MCF7 CDK7-D97N knock-in", "details": "for % Growth: MCF7 CDK7 D99N, biological reps", "description": "as §1\n(§2) Alt-R^TM S.p. Cas9 nuclease V3, Alt-R CRISPR-Cas9 crRNA, TracrRNA and the donor templates were obtained from Integrated DNA Technologies. […] Cells were treated with 0.7 µM of Alt-R HDR Enhancer V2 to improve HRD efficiency. Sequences of the CRISPRs in the crRNA and the donor templates are shown in the Reagents and tools table. Donor templates were designed to include non-coding substitutions to aid genome DNA PCR for identifying knock-in events and to facilitate cloning; these substitutions are noted in the Reagents and tools table."}, "22Rv1-CDK7-D97N cells": {"test_system": "22Rv1-CDK7-D97N cells", "assay": "Growth assay (SRB), 22Rv1 CDK7-D97N knock-in pool", "details": "for % Growth: 22Rv1 CDK7 D99N", "description": "as §1, §2"}, "LNCaP cells": {"test_system": "LNCaP cells", "assay": "Growth assay (SRB), LNCaP", "description": "as §1"}, "LNCaP-CDK7-D97N cells": {"test_system": "LNCaP-CDK7-D97N cells", "assay": "Growth assay (SRB), LNCaP CDK7-D97N knock-in", "details": "for % Growth: LNCaP CDK7 D99N", "description": "as §1, §2"}}, "note": "Where “and” joins values, the source holds several entries; their conditions need not be identical. Equal values may be shown once."}
{"smiles": "C=CC(=O)Nc1ccc(C(=O)Nc2[nH]nc3c2CN(C(=O)N[C@H](CN(C)C)c2ccccc2)C3(C)C)cc1", "note": "[YKL-5-124]", "values": [{"measurement": "% Growth", "setting": "22Rv1 cells; 22Rv1, Log10 Conc. (nM) 0.09", "value": "59.88% and 63.28%"}, {"measurement": "% Growth", "setting": "22Rv1 cells; 22Rv1, Log10 Conc. (nM) 0.69", "value": "24.70% and 25.33%"}, {"measurement": "% Growth", "setting": "22Rv1 cells; 22Rv1, Log10 Conc. (nM) 1.29", "value": "14.01% and 10.35%"}, {"measurement": "% Growth", "setting": "22Rv1 cells; 22Rv1, Log10 Conc. (nM) 1.89", "value": "12.24% and 10.17%"}, {"measurement": "% Growth", "setting": "22Rv1 cells; 22Rv1, Log10 Conc. (nM) 2.49", "value": "11.07% and 8.36%"}, {"measurement": "% Growth", "setting": "22Rv1 cells; 22Rv1, Log10 Conc. (nM) 3.10", "value": "1.88% and 3.47%"}, {"measurement": "% Growth", "setting": "22Rv1 cells; 22Rv1, Log10 Conc. (nM) 3.70", "value": "0.13% and -0.45%"}, {"measurement": "% Growth", "setting": "22Rv1 cells; 22Rv1, Log10 Conc. (nM) -0.52", "value": "83.49% and 90.26%"}, {"measurement": "% Growth", "setting": "22Rv1 cells; 22Rv1, Log10 Conc. (nM) -1.12", "value": "94.90% and 93.56%"}, {"measurement": "% Growth", "setting": "22Rv1 cells; 22Rv1, Log10 Conc. (nM) 0.09, 4 days, biological reps", "value": "93.20% and 88.05%"}, {"measurement": "% Growth", "setting": "22Rv1 cells; 22Rv1, Log10 Conc. (nM) 0.69, 4 days, biological reps", "value": "85.45% and 77.80%"}, {"measurement": "% Growth", "setting": "22Rv1 cells; 22Rv1, Log10 Conc. (nM) 1.29, 4 days, biological reps", "value": "56.44% and 44.90%"}, {"measurement": "% Growth", "setting": "22Rv1 cells; 22Rv1, Log10 Conc. (nM) 1.89, 4 days, biological reps", "value": "5.80% and -0.07%"}, {"measurement": "% Growth", "setting": "22Rv1 cells; 22Rv1, Log10 Conc. (nM) 2.49, 4 days, biological reps", "value": "-4.12% and -6.31%"}, {"measurement": "% Growth", "setting": "22Rv1 cells; 22Rv1, Log10 Conc. (nM) 3.10, 4 days, biological reps", "value": "-6.49% and -7.67%"}, {"measurement": "% Growth", "setting": "22Rv1 cells; 22Rv1, Log10 Conc. (nM) 3.70, 4 days, biological reps", "value": "-6.63% and -7.61%"}, {"measurement": "% Growth", "setting": "22Rv1 cells; 22Rv1, Log10 Conc. (nM) -0.52, 4 days, biological reps", "value": "98.36% and 93.94%"}, {"measurement": "% Growth", "setting": "22Rv1 cells; 22Rv1, Log10 Conc. (nM) -1.12, 4 days, biological reps", "value": "96.18% and 94.83%"}, {"measurement": "Sensitivity in growth assays", "setting": "22Rv1-SamR cells; 22Rv1-SamR", "value": "remained sensitive"}, {"measurement": "Resistance (Fold), fold increase in IC50 of 22Rv1-SamR relative to 22Rv1", "setting": "22Rv1-SamR cells; 22Rv1-SamR vs 22Rv1", "value": 2.0, "unit": "fold"}, {"measurement": "% Growth", "setting": "22Rv1-SamR cells; Log10 Conc. (nM) 0.09", "value": "83.75% and 87.25%"}, {"measurement": "% Growth", "setting": "22Rv1-SamR cells; Log10 Conc. (nM) 0.69", "value": "68.41% and 67.61%"}, {"measurement": "% Growth", "setting": "22Rv1-SamR cells; Log10 Conc. (nM) 1.29", "value": "30.25% and 41.41%"}, {"measurement": "% Growth", "setting": "22Rv1-SamR cells; Log10 Conc. (nM) 1.89", "value": "-7.69% and -2.73%"}, {"measurement": "% Growth", "setting": "22Rv1-SamR cells; Log10 Conc. (nM) 2.49", "value": "-11.43% and -7.53%"}, {"measurement": "% Growth", "setting": "22Rv1-SamR cells; Log10 Conc. (nM) 3.10", "value": "-11.82% and -8.43%"}, {"measurement": "% Growth", "setting": "22Rv1-SamR cells; Log10 Conc. (nM) 3.70", "value": "-15.22% and -10.53%"}, {"measurement": "% Growth", "setting": "22Rv1-SamR cells; Log10 Conc. (nM) -0.52", "value": "93.15% and 99.90%"}, {"measurement": "% Growth", "setting": "22Rv1-SamR cells; Log10 Conc. (nM) -1.12", "value": "93.43% and 95.60%"}, {"measurement": "IC50", "setting": "MCF7 cells; 4 days, SRB", "value": 5.5, "unit": "nM"}, {"measurement": "% Growth", "setting": "MCF7 cells; Log10 Conc. (nM) 0.09, 4 days", "value": "84.50% and 79.80% and 95.09% and 95.13%"}, {"measurement": "% Growth", "setting": "MCF7 cells; Log10 Conc. (nM) -0.52, 4 days", "value": "99.55% and 100.47% and 99.34% and 100.40%"}, {"measurement": "% Growth", "setting": "MCF7 cells; Log10 Conc. (nM) -1.12, 4 days", "value": "92.16% and 94.11% and 96.62% and 97.54%"}, {"measurement": "Resistance (Fold)", "setting": "MCF7-CDK7-D97N cells; MCF7-CDK7-D97N vs MCF7 WT", "value": 1.45, "unit": "fold"}, {"measurement": "IC50", "setting": "MCF7-CDK7-D97N cells; MCF7-CDK7-D97N, 4 days, SRB", "value": 8, "unit": "nM"}, {"measurement": "% Growth", "setting": "MCF7-CDK7-D97N cells; Log10 Conc. (nM) 0.09, 4 days", "value": "94.47% and 108.04% and 95.31% and 94.01%"}, {"measurement": "% Growth", "setting": "MCF7-CDK7-D97N cells; Log10 Conc. (nM) 0.69, 4 days", "value": "69.10% and 46.95% and 78.88% and 82.06%"}, {"measurement": "% Growth", "setting": "MCF7-CDK7-D97N cells; Log10 Conc. (nM) -0.52, 4 days", "value": "98.82% and 155.20% and 98.59% and 96.08%"}, {"measurement": "% Growth", "setting": "MCF7-CDK7-D97N cells; Log10 Conc. (nM) -1.12, 4 days", "value": "96.88% and 112.86% and 97.89% and 98.06%"}, {"measurement": "Sensitivity in growth assays", "setting": "22Rv1-CDK7-D97N cells; 22Rv1-CDK7-D97N vs parental", "value": "remaining sensitive"}, {"measurement": "% Growth", "setting": "22Rv1-CDK7-D97N cells; Log10 Conc. (nM) 0.09", "value": "95.04% and 95.37%"}, {"measurement": "% Growth", "setting": "22Rv1-CDK7-D97N cells; Log10 Conc. (nM) 0.69", "value": "93.89% and 97.25%"}, {"measurement": "% Growth", "setting": "22Rv1-CDK7-D97N cells; Log10 Conc. (nM) 1.29", "value": "85.36% and 88.43%"}, {"measurement": "% Growth", "setting": "22Rv1-CDK7-D97N cells; Log10 Conc. (nM) 1.89", "value": "88.25% and 90.69%"}, {"measurement": "% Growth", "setting": "22Rv1-CDK7-D97N cells; Log10 Conc. (nM) 2.49", "value": "93.92% and 88.27%"}, {"measurement": "% Growth", "setting": "22Rv1-CDK7-D97N cells; Log10 Conc. (nM) 3.10", "value": "65.35% and 66.63%"}, {"measurement": "% Growth", "setting": "22Rv1-CDK7-D97N cells; Log10 Conc. (nM) 3.70", "value": "34.13% and 30.83%"}, {"measurement": "% Growth", "setting": "22Rv1-CDK7-D97N cells; Log10 Conc. (nM) -0.52", "value": "104.35% and 94.29%"}, {"measurement": "% Growth", "setting": "22Rv1-CDK7-D97N cells; Log10 Conc. (nM) -1.12", "value": "96.98% and 94.29%"}, {"measurement": "% Growth", "setting": "LNCaP cells; Log10 Conc. (nM) 0.09", "value": "110.86% and 92.81%"}, {"measurement": "% Growth", "setting": "LNCaP cells; Log10 Conc. (nM) 0.69", "value": "85.55% and 79.81%"}, {"measurement": "% Growth", "setting": "LNCaP cells; Log10 Conc. (nM) 3.70", "value": "-11.67% and -9.39%"}, {"measurement": "% Growth", "setting": "LNCaP cells; Log10 Conc. (nM) -0.52", "value": "109.97% and 100.05%"}, {"measurement": "% Growth", "setting": "LNCaP cells; Log10 Conc. (nM) -1.12", "value": "106.79% and 104.82%"}, {"measurement": "% Growth", "setting": "LNCaP-CDK7-D97N cells; Log10 Conc. (nM) 0.09", "value": "95.98% and 86.14%"}, {"measurement": "% Growth", "setting": "LNCaP-CDK7-D97N cells; Log10 Conc. (nM) 0.69", "value": "91.96% and 46.53%"}, {"measurement": "% Growth", "setting": "LNCaP-CDK7-D97N cells; Log10 Conc. (nM) -0.52", "value": "97.82% and 101.86%"}, {"measurement": "% Growth", "setting": "LNCaP-CDK7-D97N cells; Log10 Conc. (nM) -1.12", "value": "92.55% and 85.18%"}, {"measurement": "Sensitivity in growth assays", "setting": "LNCaP-CDK7-D97N cells; LNCaP-CDK7-D97N vs parental", "value": "remaining sensitive"}]}
